Results on seven compounds are retold here after US20250092065A1, “2-(INDAZOL-5-YL)-6-(PIPERIDIN-4-YL)-1,7-NAPHTHYRIDINE DERIVATIVES AND RELATED COMPOUNDS AS MODULATORS FOR SPLICING NUCLEIC ACIDS AND FOR THE TREATMENT OF PROLIFERATIVE DISEASES” (REMIX THERAPEUTICS INC., priority 2022, published 2025).

The subject of one data set is MYB. Description: HiBiT protein abundance assay, MYB (K562 HiBiT knock-in). The class given is cell-based, human. Conditions: HiBiT knock-in K562 cells, 24 hours, top dose 10 μM. Put shortly:
(§1)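 Tagged-protein levels were measured as HiBiT/LgBiT luminescence in lysed K562 knock-in cells exposed to serially diluted compound (up to 10 μM final) for 24 hours. A four-parameter logistic regression of control-normalized signal yielded the IC50.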
(In general: With HiBiT, luminescence reflects the tagged protein that the partner subunit can reach.)

A further data set has as its system HTT mRNA. Description: RT-qPCR splicing assay, HTT mRNA canonical (CJ) and alternative (AJ) junction. In kind it is cell-based, human. Conditions: Homo sapiens; for AC50: HTT alternative junction mRNA, read-out: HTT AJ (increase in AJ mRNA, AC50). Put shortly: (§2)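 Splice switching quantified in compound-treated A673/K562 cells after 24 h exposure (top dose 10 uM, 3-fold steps, ≤0.25% DMSO), using CJ and AJ qPCR assays run at least in duplicate. RQ derived by 2^(−ΔΔCt), then percentage response.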
Background: Real-time PCR tracks product formation cycle by cycle.

In the next data set the test system is HTT. Description: HiBiT protein abundance assay, HTT (K562 HiBiT knock-in). The class given is cell-based, human. Conditions: HiBiT knock-in K562 cells, 24 hours, top dose 10 μM. Put shortly:
as §1

For another data set, the system named is Target C. Description: HiBiT protein abundance assay, Target C (K562 HiBiT knock-in). In kind it is cell-based, human. Conditions: HiBiT knock-in K562 cells, 24 hours, top dose 10 μM. Put shortly:
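K562 HiBiT knock-in cells (10000/well) were treated 24 h at 37° C with a 10-point 3-fold dilution series (top 10 μM final, ≤0.25% DMSO). HiBiT luminescence was read after lytic LgBiT detection. Percent response used unmodified K562 and DMSO-treated knock-in controls, and IC50 came from a four-parameter fit at 50% of untreated.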

Another data set has as its system MYB mRNA. Description: RT-qPCR splicing assay, MYB mRNA canonical (CJ) and alternative (AJ) junction. The class given is cell-based, human. The settings on record: Homo sapiens; for AC50: MYB alternative junction mRNA, read-out: MYB AJ (increase in AJ mRNA, AC50). Put shortly:
as §2

A further data set concerns K562 cells. Description: Cell Titer Glo 2.0 cell viability (toxicity) assay, K562. Conditions: 500 cells/well, 72 hours. Background: ATP-based viability assays read luminescence as a measure of living cells.
The subject of the next data set is SMN2 mRNA. Description: RT-qPCR splicing assay, SMN2 mRNA. In kind it is cell-based, human. Conditions: Homo sapiens, canonical junction qPCR panel, Table 4; read-out: SMN2 IC50 (decrease in CJ mRNA levels). In short, it runs like this: as §2
Where [1] appears, read: HTT canonical junction mRNA, RT-qPCR, read-out: HTT CJ (decrease in CJ mRNA levels, IC50).
The mark [2] stands for this setting: canonical junction qPCR panel, Table 4, read-out: HTT IC50 (decrease in CJ mRNA levels).
Setting [3] is: MYB canonical junction mRNA, RT-qPCR, read-out: MYB CJ (decrease in CJ mRNA levels, IC50).
The mark [4] stands for this setting: canonical junction qPCR panel, Table 4, read-out: MYB IC50 (decrease in CJ mRNA levels).

Like-named read-outs stand apart in the source and are kept apart here. Bounds are passed on as bounds.

As a reminder, the IC50 is the concentration that gives 50% inhibition. For orientation: AC50 means the concentration giving half of the maximal activity seen. On to `Cn1cc2nc(-c3ccc4nc(C5CCNCC5)ccc4n3)c(F)cc2n1` [Compound 205], for which the IC50 with MYB, in the data set with HTT mRNA (setting [1]), with HTT mRNA (setting [2]), in the data set on HTT, in the data set with Target C and in the data set on MYB mRNA (setting [3]) was 1000 to 10000 nM throughout. Besides, the IC50 with MYB mRNA (setting [4]) and in the data set on SMN2 mRNA was 1000 to 10000 nM each time. For the same compound, the AC50 in the data set with HTT mRNA (RT-qPCR) and in the data set on MYB mRNA (RT-qPCR) was 1000 to 10000 nM throughout. Besides, the “Effect of Exemplary Compounds on Cell Viability, K562” value (from here on “Effect of Exemplary Compounds”) in the data set with K562 cells is given as “C (C represents 1000-9999 nM)”.

In the case of `Cc1cn2cc(-c3ccc4nc(N5CCC(NC(C)(C)C)C5)ccc4n3)nc(C)c2n1` (centres unmarked) [Compound 206], the IC50 in the data set with MYB, in the data set with HTT mRNA (setting [1]), with HTT mRNA (setting [2]), in the data set on HTT, in the data set on Target C and in the data set on MYB mRNA (setting [3]) was 1000 to 10000 nM throughout. The IC50 in the data set with MYB mRNA (setting [4]) and in the data set on SMN2 mRNA was 1000 to 10000 nM throughout. For the same compound, the AC50 with HTT mRNA (RT-qPCR) and in the data set on MYB mRNA (RT-qPCR) was 1000 to 10000 nM each time. Moreover, the “Effect of Exemplary Compounds” value with K562 cells is recorded as “C (C represents 1000-9999 nM)”.

For the compound `Cn1cc2nc(-c3ccc4nc(N5CCC(NC(C)(C)C)C5)ccc4n3)c(F)cc2n1` (centres unmarked) [Compound 207], the IC50 with MYB, in the data set with HTT mRNA (setting [1]), in the data set with HTT mRNA (setting [2]), in the data set with HTT, in the data set on Target C and in the data set on MYB mRNA (setting [3]) was 1000 to 10000 nM each time. The IC50 with MYB mRNA (setting [4]) and with SMN2 mRNA was 1000 to 10000 nM in each case. For the same compound, the AC50 with HTT mRNA (RT-qPCR) and with MYB mRNA (RT-qPCR) was 1000 to 10000 nM throughout. Moreover, the “Effect of Exemplary Compounds” value in the data set on K562 cells is “C (C represents 1000-9999 nM)”.

With `Cc1nc(-c2ccc3nc(N4CCC(NC(C)(C)C)C4)ccc3n2)cc2cn(C)nc12` (centres unmarked) [Compound 208], the IC50 is greater than 10000 nM in the data set on MYB; greater than 10000 nM in the data set with HTT mRNA (setting [1]); greater than 10000 nM in the data set on HTT mRNA (setting [2]); 1000 to 10000 nM in the data set with HTT; greater than 10000 nM with Target C; greater than 10000 nM with MYB mRNA (setting [3]). Also, the half-maximal inhibitory concentration (IC50) in the data set on MYB mRNA (setting [4]) was greater than 10000 nM; in the data set on SMN2 mRNA, 1000 to 10000 nM. Besides, the figures for the AC50 in the data set on HTT mRNA (RT-qPCR) and in the data set on MYB mRNA (RT-qPCR) were greater than 10000 nM and 1000 to 10000 nM, respectively. Moreover, the “Effect of Exemplary Compounds” value in the data set on K562 cells is recorded as “D (D represents greater than 10 μM in K562 cells)”.

Regarding `Cc1nc2cc(O)c(-c3ccc4nc(N5CC[C@H](NC(C)(C)C)C5)ccc4n3)cc2o1` [Compound 209], the IC50 is 1000 to 10000 nM in the data set on MYB; less than 100 nM in the data set on HTT mRNA (setting [1]); less than 100 nM in the data set on HTT mRNA (setting [2]); less than 100 nM with HTT; less than 100 nM in the data set with Target C; less than 100 nM in the data set with MYB mRNA (setting [3]). Further, the IC50 with MYB mRNA (setting [4]) and in the data set on SMN2 mRNA was less than 100 nM in each case. The AC50 in the data set on HTT mRNA (RT-qPCR) and with MYB mRNA (RT-qPCR) was less than 100 nM throughout. Besides, the “Effect of Exemplary Compounds” value in the data set with K562 cells is “C (C represents 1000-9999 nM)”.

As for `Cc1nc2cc(O)c(-c3ccc4nc(N5CC[C@@H](NC(C)(C)C)C5)ccc4n3)cc2o1` [Compound 210], the IC50 in the data set on MYB is less than 100 nM; with HTT mRNA (setting [1]) it was 100 to 1000 nM; in the data set on HTT mRNA (setting [2]), 100 to 1000 nM; in the data set with HTT, less than 100 nM; with Target C, less than 100 nM; in the data set on MYB mRNA (setting [3]), 1000 to 10000 nM. Besides, the IC50 with MYB mRNA (setting [4]) is 1000 to 10000 nM; in the data set with SMN2 mRNA it was less than 100 nM. For the same compound, the AC50 with HTT mRNA (RT-qPCR) and in the data set with MYB mRNA (RT-qPCR) was 1000 to 10000 nM each time. The “Effect of Exemplary Compounds” value with K562 cells is recorded as “A (A represents <100 nM)”.

On to `Cc1nc2cc(O)c(-c3ccc4nc(N5CC[C@H](NC6CC6)C5)ccc4n3)cc2o1` [Compound 211], for which the IC50 in the data set on MYB, in the data set with HTT mRNA (setting [1]), in the data set on HTT mRNA (setting [2]), in the data set with HTT, in the data set on Target C and with MYB mRNA (setting [3]) was less than 100 nM each time. In addition, the IC50 in the data set with MYB mRNA (setting [4]) and in the data set on SMN2 mRNA was less than 100 nM each time. For the same compound, the AC50 with HTT mRNA (RT-qPCR) and in the data set with MYB mRNA (RT-qPCR) was less than 100 nM each time. For the same compound, the “Effect of Exemplary Compounds” value with K562 cells was “B (B represents 100-1000 nM)”.
